{
  "source": "the METLIN SMRT retention time set (Domingo-Almenara et al. 2019)",
  "data": [
    {"test": "gradient 5% acetonitrile 3 min, to 50% in 2 min, to 85% in 15 min, held 3 min, 100 µL/min", "conditions": "column: Zorbax Extend-C18 2.1 x 50 mm; eluents: water / acetonitrile, 0.1% formic acid", "procedure,_shortened": "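The mobile phases were water and acetonitrile, each with 0.1% formic acid, pumped at 100 μL/min through a Zorbax Extend-C18 column (2.1 × 50 mm, 1.8 μm). Pure standards were injected as mixtures of ~100 molecules and detected by a quadrupole time-of-flight mass spectrometer in positive and negative ionization mode. Retention time came from computationally picked adduct peaks, each inspected by hand.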", "units": {"RP-LC retention time": "s"}, "values": [
      {"smiles": "CCOc1cc(=O)n2c(c1C(=O)OCc1cccc(F)c1)CCCC2", "RP-LC retention time": 900},
      {"smiles": "Cc1c(Cl)cccc1N1CC(c2nc3ccccc3[nH]2)CC1=O", "note": "(stereo not drawn)", "RP-LC retention time": 577},
      {"smiles": "CC(Cc1ccco1)NC(=O)CC1CCN(C(=O)c2ccc3nc(-c4ccccc4)oc3c2)CC1", "note": "(stereo not drawn)", "RP-LC retention time": 830},
      {"smiles": "Cc1cc(NC(=O)C2CCN(C(=O)c3cccc(-n4cnnn4)c3)CC2)no1", "RP-LC retention time": 621},
      {"smiles": "O=C(NCC1CCCO1)C1CCN(C(=O)c2ncn3c2COC(c2ccc(F)cc2)C3)CC1", "note": "(stereo not drawn)", "RP-LC retention time": 658},
      {"smiles": "CCC(CC)C(=O)N1C[C@H](c2nc(-c3ccncc3)no2)[C@@H](C)C1", "RP-LC retention time": 793},
      {"smiles": "CCCn1cc(CCNC(=O)Nc2ccc(C)c(F)c2)c2cccnc21", "RP-LC retention time": 807},
      {"smiles": "CCN(CC)CCNCc1ccc(-c2ccc(OC)c(Cl)c2)o1", "RP-LC retention time": 566},
      {"smiles": "CCc1cccc(NC(=O)N2CCC(n3cnnc3C)CC2)c1", "RP-LC retention time": 650},
      {"smiles": "CC(C)CNC(=O)c1nnn2c1COC(c1ccc(Br)cc1)C2", "note": "(stereo not drawn)", "RP-LC retention time": 973},
      {"smiles": "COc1ccc(OC)c(NC(=O)N(C)CCc2noc(COc3ccc(Cl)cc3)n2)c1", "RP-LC retention time": 1000},
      {"smiles": "COc1ccc(NC(=O)Cn2ncc3c(N4CCN(c5ccccn5)CC4)ncnc32)cc1", "RP-LC retention time": 596},
      {"smiles": "COc1ccccc1N1CCN(CCN(C(=O)C2CCCCC2)c2ccccn2)CC1", "RP-LC retention time": 816},
      {"smiles": "O=C(CCNc1c(-c2ccccc2)nc2cnccn12)NCc1ccccc1F", "RP-LC retention time": 698},
      {"smiles": "COc1ccc(-c2nc3cnccn3c2Nc2ccc(C(=O)N3CCOCC3)cc2)cc1", "RP-LC retention time": 664},
      {"smiles": "O=C(Nc1cccc2ccc(-n3ccnc3)nc12)C1COc2ccccc2O1", "note": "(stereo not drawn)", "RP-LC retention time": 674},
      {"smiles": "CC(C)Cn1c(=O)c(N2CCN(C(=O)NCc3ccco3)CC2)nc2ccncc21", "RP-LC retention time": 616},
      {"smiles": "C=CCN(Cc1nc(-c2cccc(C)c2)no1)C(=O)Nc1ccccc1C", "RP-LC retention time": 1080},
      {"smiles": "Cc1cn2c(S(=O)(=O)NC3CCCCC3)c(C(C)C)nc2s1", "RP-LC retention time": 999},
      {"smiles": "O=C(NCCn1c(=O)n(Cc2ccccc2)c2cccnc21)c1cccs1", "RP-LC retention time": 744},
      {"smiles": "O=C1CN(C(=O)CN2CCCCC2)C(c2ccccc2)c2cc(Br)ccc2N1", "note": "(stereo not drawn)", "RP-LC retention time": 656},
      {"smiles": "O=C(CCc1nnc2ccc(NCc3ccco3)nn12)N1CCN(c2ccccn2)CC1", "RP-LC retention time": 569},
      {"smiles": "Cc1ccc(C2=NC3(CCN(C(=O)Cc4cccs4)CC3)ON2)cc1", "RP-LC retention time": 829},
      {"smiles": "O=C(CCc1nc2ccccc2n(CC(=O)NC2CCc3ccccc32)c1=O)NC1CCCCC1", "note": "(stereo not drawn)", "RP-LC retention time": 879},
      {"smiles": "CCOc1ccc(S(=O)(=O)Nc2cc(-c3cn4ccccc4n3)ccc2C)cc1", "RP-LC retention time": 687},
      {"smiles": "O=C(c1cc(F)ccc1F)N1CCC2(CC1)NC(=O)N(Cc1ccc(Cl)cc1)C2=O", "RP-LC retention time": 890},
      {"smiles": "CCOC(=O)c1ccc2ncc(C(=O)OCC)c(NCCN(C)C)c2c1", "RP-LC retention time": 569},
      {"smiles": "O=C(CCCNC(=O)c1cc(-c2ccco2)on1)Nc1cccc2cccnc12", "RP-LC retention time": 805},
      {"smiles": "O=C(N[C@H]1C[C@@H]2C[C@H]1CN2S(=O)(=O)c1ccc(C(F)(F)F)cc1)c1cccnc1", "RP-LC retention time": 794},
      {"smiles": "O=C([C@@H]1C[C@H](Oc2ccccc2)CN1C1CCOCC1)N1CCc2ccccc21", "RP-LC retention time": 709},
      {"smiles": "Cc1cccc(-n2cc(C(=O)OCc3ccccn3)c3ccccc3c2=O)c1", "RP-LC retention time": 932},
      {"smiles": "CN1C(=O)c2cc(S(=O)(=O)Nc3cccc(F)c3)ccc2Oc2cccnc21", "RP-LC retention time": 879},
      {"smiles": "CCOc1ccc(NC(=O)C2CCN(S(=O)(=O)c3ccc4c(c3)NC(=O)C(CC)O4)CC2)cc1", "note": "(stereo not drawn)", "RP-LC retention time": 888},
      {"smiles": "Cc1ccc(Nc2c(-c3ccc(N(C)C)cc3)nc3cnccn23)c(Br)c1", "RP-LC retention time": 990},
      {"smiles": "CC(NC(=O)C1=C2CCCN2c2ccccc2S1(=O)=O)c1ccccc1", "note": "(stereo not drawn)", "RP-LC retention time": 855},
      {"smiles": "CC(C)(c1ccccc1)c1cc(CN2CCOCC2)c(O)c(CN2CCOCC2)c1", "RP-LC retention time": 575},
      {"smiles": "CNC(=O)Cn1nc(C2CCN(C(=O)c3ccc(F)cc3)CC2)c2c1CCOC2", "RP-LC retention time": 614},
      {"smiles": "Cc1cccc(-c2noc(-c3ccc(N4CCN(c5ncccn5)CC4)nc3)n2)c1", "RP-LC retention time": 1310},
      {"smiles": "O=C(CSc1nnc(-c2ccc(Br)cc2)o1)OCc1ccccc1", "RP-LC retention time": 1150},
      {"smiles": "CC(C)n1nc(-c2nc(-c3cccc(Cl)c3)no2)ccc1=O", "RP-LC retention time": 1150},
      {"smiles": "CCn1cc(CN2CCC(C(=O)NC(C)c3ccccc3)CC2)c2cc(OC)ccc21", "note": "(stereo not drawn)", "RP-LC retention time": 707},
      {"smiles": "COc1ccc2c(c1)C1(CCN(C(=O)c3ccccc3Br)C1)C(=O)N2", "note": "(stereo not drawn)", "RP-LC retention time": 750},
      {"smiles": "CC(C)c1ccc(Nc2c(-c3cc(Br)ccc3O)nc3ncccn23)cc1", "RP-LC retention time": 1190},
      {"smiles": "C=C1CC2(OC1=O)c1ccccc1CCc1ccccc12", "RP-LC retention time": 1140},
      {"smiles": "CC1CCCN(C(=O)C2CCN(S(=O)(=O)c3ccc4c(c3)CCCC(=O)N4)CC2)C1", "note": "(stereo not drawn)", "RP-LC retention time": 731},
      {"smiles": "O=C(CC1CCN(C(=O)Nc2cccc(C(F)(F)F)c2)CC1)N1CCCCC1", "RP-LC retention time": 878},
      {"smiles": "COC(=O)c1ccc(NC(=O)N2CCCC2c2cccc(F)c2)cc1", "note": "(stereo not drawn)", "RP-LC retention time": 898},
      {"smiles": "CC(=O)N1CCc2cc(-c3ccc(C(=O)NCCN4CCCC4)cc3)ccc21", "RP-LC retention time": 607},
      {"smiles": "Cc1cc(-c2csc(S(=O)(=O)NCCc3ccc(S(N)(=O)=O)cc3)c2)on1", "RP-LC retention time": 744},
      {"smiles": "O=C(Cn1ccc2ccc(N3CCOCC3)nc21)NCc1ccco1", "RP-LC retention time": 773},
      {"smiles": "CCCCN(C)C(=O)Cn1c(C2CC(=O)N(C3CCCC3)C2)nc2ccccc21", "note": "(stereo not drawn)", "RP-LC retention time": 680},
      {"smiles": "CNC(=O)c1cc(Oc2ccc(NC(=O)Nc3ccc(Cl)c(C(F)(F)F)c3)cc2)ccn1", "RP-LC retention time": 1190},
      {"smiles": "O=C(NCCC1=CCCCC1)C1CCCN(c2nccn3nc(-c4ccccc4Cl)cc23)C1", "note": "(stereo not drawn)", "RP-LC retention time": 1090},
      {"smiles": "CCCNC(=O)c1c(C)sc2ccn(Cc3ccc(F)cc3)c(=O)c12", "RP-LC retention time": 863},
      {"smiles": "COc1ccc(OC)c(CNC(=O)Cc2nnc(-c3ccccn3)o2)c1", "RP-LC retention time": 687},
      {"smiles": "Cc1ccccc1-c1noc(C2CCCN2C(=O)Nc2ccccc2F)n1", "note": "(stereo not drawn)", "RP-LC retention time": 1020},
      {"smiles": "COc1ccc(CNC(=O)Cn2cnc3nc(N4CCC(C(=O)NC5CC5)CC4)sc3c2=O)cc1", "RP-LC retention time": 666},
      {"smiles": "CCOc1ccccc1NC(=O)N1CCC(C)(C(=O)NCc2ccc(F)cc2)CC1", "RP-LC retention time": 906},
      {"smiles": "CCCn1cc(C(=O)NCc2ccc(F)cc2F)c(S(=O)(=O)N2CCC(C)CC2)n1", "RP-LC retention time": 1100},
      {"smiles": "COC(=O)c1c(NCc2cccnc2)c2cccc(Cl)c2[nH]c1=O", "RP-LC retention time": 566},
      {"smiles": "O=C(NC1CCN(C(=O)c2cn(-c3cccc(F)c3)nn2)CC1)c1ccc2ccccc2n1", "RP-LC retention time": 831},
      {"smiles": "CCc1ccccc1S(=O)(=O)NCC(c1cccnc1)c1c[nH]c2ccccc12", "note": "(stereo not drawn)", "RP-LC retention time": 706},
      {"smiles": "CCCN(C)C(=O)c1cc(=O)[nH]c2ccccc12", "RP-LC retention time": 614},
      {"smiles": "O=C(Nc1ccc(Cl)cc1)N1CCC(N2CCN(Cc3ccc(F)cc3)C(=O)C2=O)CC1", "RP-LC retention time": 799},
      {"smiles": "Cc1ccc(C)c2sc(N(C)CC(=O)Nc3ccc(S(C)(=O)=O)cc3)nc12", "RP-LC retention time": 892},
      {"smiles": "COc1ccccc1C(=O)N1CCC(Oc2cc(N(C)C)ncn2)C1", "note": "(stereo not drawn)", "RP-LC retention time": 639},
      {"smiles": "CCOC(=O)c1[nH]c(C)c(C(=O)C(C)N(C(=O)c2ccc(F)cc2)C2CC2)c1C", "note": "(stereo not drawn)", "RP-LC retention time": 890},
      {"smiles": "COCC(=O)Nc1cnc(-c2ccccc2)nc1", "RP-LC retention time": 729},
      {"smiles": "C[C@@H](CN1CCC(Cc2ccccc2)CC1)[C@@H](O)c1ccc(O)cc1", "RP-LC retention time": 737},
      {"smiles": "CCc1ccc(C(=O)NC2CCN(c3cc(-c4ccc(Cl)cc4)[nH]n3)C2)cc1", "note": "(stereo not drawn)", "RP-LC retention time": 879},
      {"smiles": "Cc1ccc(-c2noc(CN3N=NC4C(=O)N(c5ccccc5)C(=O)C43)n2)cc1C", "note": "(stereo not drawn)", "RP-LC retention time": 1020},
      {"smiles": "Cn1nc2n(c1=O)CCN(C(=O)Cc1ccsc1)CC2", "RP-LC retention time": 611},
      {"smiles": "CCc1cnc2c(c1OC)c(=O)n(Cc1ccccc1F)c(=O)n2C", "RP-LC retention time": 970},
      {"smiles": "Cc1ccc(C)c(NC(=O)Cn2cccc2-c2nnc(-c3ccccc3)o2)c1", "RP-LC retention time": 1020},
      {"smiles": "CCCn1c(=O)c2sc(N3CCCC3)nc2n(CC(=O)NCCC2=CCCCC2)c1=O", "RP-LC retention time": 997},
      {"smiles": "COc1ccc(N2CCN(c3nc4c(c(Nc5ccccc5)n3)C(=O)CCC4)CC2)cc1", "RP-LC retention time": 1210},
      {"smiles": "Cc1ccc2c(c1)N(S(C)(=O)=O)CCC(C(=O)NCc1ccc(Cl)cc1)O2", "note": "(stereo not drawn)", "RP-LC retention time": 954},
      {"smiles": "O=C(Cn1c(=O)c2cccn2c2ccc(F)cc21)Nc1ccccc1F", "RP-LC retention time": 858},
      {"smiles": "O=C(NCCN1CCc2ccccc2C1)c1cccc2c1CCN2C(=O)C1CC1", "RP-LC retention time": 640},
      {"smiles": "COc1ccc(N2CCN(c3cc(C)nc4nc(-c5ccc(C)cc5)nn34)CC2)cc1", "RP-LC retention time": 1010},
      {"smiles": "CSc1ccc(Cl)c(C(=O)NCCc2cn(C)c3ncccc23)c1", "RP-LC retention time": 724},
      {"smiles": "COc1cc(NC(=O)c2cc3cc4cc(OC)ccc4nc3o2)cc(OC)c1", "RP-LC retention time": 971},
      {"smiles": "CCCCN(C)C(=O)Cn1c(CO)nc2ccccc21", "RP-LC retention time": 589},
      {"smiles": "CC(C)NC(=O)c1nc2ccccc2n(C)c1=O", "RP-LC retention time": 659},
      {"smiles": "CCn1cc(-c2nc(C)c(C(=O)Nc3cc(OC)ccc3OC)s2)c2cccnc21", "RP-LC retention time": 1130},
      {"smiles": "O=C(Cn1c(=O)oc2ccccc21)N1CC2CC(C1)c1cccc(=O)n1C2", "note": "(stereo not drawn)", "RP-LC retention time": 588},
      {"smiles": "CC1(C(=O)NC2CCCC2)Cn2cnc(C(=O)NCc3ccccc3F)c2C(=O)N1C1CC1", "note": "(stereo not drawn)", "RP-LC retention time": 778},
      {"smiles": "CCOc1ccc(OCC)c(N2C=C(C#N)S(=O)(=O)c3c(F)cccc32)c1", "RP-LC retention time": 923}
    ]}
  ]
}
